Among the data in patent publication US20130045983A1, “HSP90 INHIBITORS FOR THERAPEUTIC TREATMENT” (Novartis AG, priority 2008, published 2013) are IC50 and GI50 values, retold here.

Holding throughout (type): cell-based
Test [1] deals with LXFA 289. Put plainly: Clonogenic assay, LXFA 289. The following applies: Homo sapiens, Lung, non-small cell, Adenocarcinoma, soft agar, read-out: IC50 (colony formation). The procedure: (§1) The anticancer activity of (R)-2-amino-7-[2-(6-methoxy-pyridin-2-yl)-phenyl]-4-methyl-7,8-dihydro-6H-pyrido[4,3-d]pyrimidin-5-one is evaluated in 30 human tumor xenografts in vitro using a clonogenic assay. In this assay, human cells derived from cancer patients are evaluated for the capacity of (R)-2-amino-7-[2-(6-methoxy-pyridin-2-yl)-phenyl]-4-methyl-7,8-dihydro-6H-pyrido[4,3-d]pyrimidin-5-one to inhibit the formation of 3 dimensional colonies. […] The tumor xenografts which have never been cultured in cell culture plastic dishes are isolated from nude mice. Tumor cell suspensions are prepared and incubated in 24 well plates containing layers of soft agar. Under these conditions a special subpopulation of cells selectively grows to colonies. (R)-2-amino-7-[2-(6-methoxy-pyridin-2-yl)-phenyl]-4-methyl-7,8-dihydro-6H-pyrido[4,3-d]pyrimidin-5one is tested in 6 concentrations up to 1000 nM. The tumor test panel comprises 1 to 10 models of 12 different human tumor types, which were bladder cancer, colon, gastric, non small cell lung (adeno, squamous cell, and large cell), small cell lung, mammary, ovary, and prostate cancer, as well as leukemia, lymphoma, melanoma, and sarcoma. Antitumor effects are recorded as inhibition of colony formation in relation to untreated controls. […]

The subject of test [2] is LXFA 1012. Put plainly: Clonogenic assay, LXFA 1012. The following applies: Homo sapiens, Lung, non-small cell, Adenocarcinoma, soft agar, read-out: IC50 (colony formation). On the procedure: as §1
The test system of test [3] is GXF 1172. Put plainly: Clonogenic assay, GXF 1172. The following applies: Homo sapiens, Stomach, Signet-ring cell carcinoma, soft agar, read-out: IC50 (colony formation). On the procedure:
as §1

Test [4] has as its system CXF 1729. Put plainly: Clonogenic assay, CXF 1729. The following applies: Homo sapiens, Colon, Papillary adenocarcinoma, soft agar, read-out: IC50 (colony formation). The procedure:
as §1

Test [5] relates to K562. Put plainly: Cell proliferation assay, K562 (leukemia). The following applies: Homo sapiens, 72 hours in presence of compound. On the procedure:
(§2) Seventeen cancer derived cell lines are used (GTL-16, N87, H1975, A549, H69, A2780, PC3, BT474, SKBR3, MCF-7, A375, MV4;11, K562, KM12L4A, H929, OPM-2 and KMS-11) to test the effect of (R)-2-amino-7-[2-(6-methoxy-pyridin-2-yl)-phenyl]-4-methyl-7,8-dihydro-6H-pyrido[4,3-d]pyrimidin-5-one. These cell lines cover the following 9 tumor types: Gastric, Lung, Ovarian, Prostate, Breast, Melanoma, Leukemia, Colon and Multiple myeloma. After division and medium change, cells from stock culture are seeded on cell plates and cultured for about 18 hours to allow cell growth and attachment before starting the assay. Then on the first day of the assay, (R)-2-amino-7-[2-(6-methoxy-pyridin-2-yl)-phenyl]-4-methyl-7,8-dihydro-6H-pyrido[4,3-d]pyrimidin-5-one is added to the medium at various concentrations. Cells are cultured up to 72 or 96 hours and cell proliferation is determined using commercially available cell proliferation kits.
(§3) Table 1 relates to the concentration in nM of (R)-2-amino-7-[2-(6-methoxy-pyridin-2-yl)-phenyl]-4-methyl-7,8-dihydro-6H-pyrido[4,3-d]pyrimidin-5-one which inhibits cell proliferation by 50% (IC50). […]

In test [6] the test system is MEXF 1341. Put plainly: Clonogenic assay, MEXF 1341. The following applies: Homo sapiens, Amelanotic melanoma, soft agar, read-out: IC50 (colony formation). On the procedure:
as §1

The subject of test [7] is MCF-7. Put plainly: Cell proliferation assay, MCF-7 (breast). The following applies: Homo sapiens, MCF7, 72 hours in presence of compound. On the procedure:
as §2, §3

The subject of test [8] is LXFE 1422. Put plainly: Clonogenic assay, LXFE 1422. The following applies: Homo sapiens, Lung, non-small cell, Squamous cell carcinoma, soft agar, read-out: IC50 (colony formation). On the procedure: as §1
The subject of test [9] is LXFA 737. Put plainly: Clonogenic assay, LXFA 737. The following applies: Homo sapiens, Lung, non-small cell, Adenocarcinoma, soft agar, read-out: IC50 (colony formation). On the procedure:
as §1

Test [10] has as its system A549. Put plainly: Cell proliferation assay, A549 (lung). The following applies: Homo sapiens, 72 hours in presence of compound. The procedure: as §2, §3
The subject of test [11] is PRXF DU145. Put plainly: Clonogenic assay, PRXF DU145. The following applies: Homo sapiens, DU-145, Prostate, Adenocarcinoma, soft agar, read-out: IC50 (colony formation). The procedure:
as §1

The subject of test [12] is SXF 463. Put plainly: Clonogenic assay, SXF 463. The following applies: Homo sapiens, Sarcoma, Rhabdomyosarcoma, soft agar, read-out: IC50 (colony formation). The procedure:
as §1

In test [13] the test system is MAXF 574. Put plainly: Clonogenic assay, MAXF 574. The following applies: Homo sapiens, Breast, Carcinoma, soft agar, read-out: IC50 (colony formation). The procedure:
as §1

Test [14] has as its system N87. Put plainly: Cell proliferation assay, N87 (gastric). The following applies: 72 hours in presence of compound. The procedure:
as §2, §3

The test system of test [15] is SXF 1186. Put plainly: Clonogenic assay, SXF 1186. The following applies: Homo sapiens, Sarcoma, Osteoblastic osteosarcoma, soft agar, read-out: IC50 (colony formation). The procedure: as §1
The test system of test [16] is SKBR3. Put plainly: Cell proliferation assay, SKBR3 (breast). The following applies: Homo sapiens, SK-BR-3, 72 hours in presence of compound. On the procedure:
as §2, §3

In test [17] the test system is MAXF 1384. Put plainly: Clonogenic assay, MAXF 1384. The following applies: Homo sapiens, Breast, Adenocarcinoma, soft agar, read-out: IC50 (colony formation). On the procedure:
as §1

In test [18] the test system is PC3. Put plainly: Cell proliferation assay, PC3 (prostate). The following applies: Homo sapiens, PC-3, 72 hours in presence of compound. The procedure: as §2, §3
Test [19] deals with MAXF 713. Put plainly: Clonogenic assay, MAXF 713. The following applies: Homo sapiens, Breast, Adenocarcinoma, soft agar, read-out: IC50 (colony formation). The procedure:
as §1

In test [20] the test system is A2780. Put plainly: Cell proliferation assay, A2780 (ovarian). The following applies: Homo sapiens, 72 hours in presence of compound. The procedure: as §2, §3
Test [21] has as its system MAXF 401. Put plainly: Clonogenic assay, MAXF 401. The following applies: Homo sapiens, MAXF401, Breast, Pap. adenocarcinoma, soft agar, read-out: IC50 (colony formation). The procedure: as §1

SMILES strings stand for the structures. pIC50: −log10 of the molar value.

With `COc1cccc(-c2ccccc2[C@H]2Cc3nc(N)nc(C)c3C(=O)N2)n1` [(R)-2-amino-7-[2-(6-methoxy-pyridin-2-yl)-phenyl]-4-methyl-7,8-dihydro-6H-pyrido[4,3-d]pyrimidin-5-one], the pIC50 (as a rule, the negative decadic logarithm of the IC50, by convention in mol/L) in test [1] was 6.19; in [2], below 6.00; in test [3], 7.37; in [4], 6.70; in test [6] it was below 6.00; in [8], 7.70. In addition, the negative-log IC50 (pIC50) in test [9] was 7.59; in [11], 7.77; in [12], 8.30; in [13] it was 6.50; in test [15] it was 7.68; in test [17] it was 7.85. The pIC50 in test [19] is below 6.00; in test [21] it was 7.82. Besides, the GI50 (usually the concentration that inhibits growth by half) in test [5] stood at 24 nM; in [7] it was 8 nM; in test [10] it was 16 nM; in [14] it was 12 nM; in [16] it was 18 nM; in test [18] it was 16 nM. For the same molecule, the 50% growth inhibitory concentration (GI50) in test [20] amounted to 27 nM.
